Reference: patent publication US10253002B2, “Compounds and methods of treating infections” (Neoculi Pty Ltd., priority 2013, dated 2019)
“And” between values parts separate entries of the source, which are not always exact repeats. Identical values can stand only once.

What was measured:
[1] = tested on: S. aureus isolates (HA-MRSA, CA-MRSA, methicillin-susceptible staphylococci); assay: Kirby-Bauer disc diffusion resistotyping, Example 4; type: cell-based, Staphylococcus aureus; settings: for Total isolates resistant (Kirby-Bauer disc diffusion): all isolates (n = 30)
Method: Antibiotic-susceptibility profiling of the isolate collection was undertaken using Kirby-Bauer disc diffusion, as recommended by the Clinical and Laboratory Standards Institute (CLSI) on Mueller-Hinton agar. Isolates were grown overnight on SBA at 37° C. Colonies were suspended in physiological saline. Turbidity was adjusted to a 0.5 McFarland standard and suspensions were spread over the medium. Antibiotic discs according to Table 9 below were transferred onto the inoculated medium and analysed after 24 h incubation at 37° C.

[2] = tested on: S. pneumoniae isolates; assay: Disk diffusion susceptibility (CLSI/EUCAST), Example 5; type: cell-based, Streptococcus pneumoniae
Method: Isolate susceptibility to 12 different antimicrobials (Table 16) was determined by CLSI and European Committee on Antimicrobial Susceptibility Testing (EUCAST) methods. Antimicrobials were selected based upon the CLSI and EUCAST guidelines. Standardised bacterial suspensions were spread onto MHSBA using a sterile cotton swab. Bacterial suspensions from of Streptococcus pneumoniae were standardised to an OD6O0 between 0.08 and 0.1 using a spectrophotometer and then diluted 1:20. Bacterial colonies were taken from an O/N horse blood agar plate. To ensure the purity of the 1:20 bacterial suspension, 50 μL was spread plated onto horse blood agar and incubated O/N at 37° C. with 5% CO2. The CFU was calculated and compared to the initial plate counts. Antibiotic disks (Purchased from Sigma Aldrich) were placed using a disk dispenser (Purchased from Oxoid) according to CLSI standards. MHSBA plates were incubated for 16 h-24 h at 37° C. in 5% CO2. Zones of complete inhibition were measured in triplicate to the nearest millimeter using a ruler on natural light-reflected growth, and the mode was represented as the diameter for each isolate. Pneumococcal isolates were categorised as sensitive, intermediate (I) or resistant (R) by CLSI standards and quality control (QC) ranges (Table 16).

[3] = tested on: Staphylococcus pseudintermedius isolates (MSSP and MRSP); assay: Disk diffusion and Epsilometer susceptibility testing, Example 6; type: cell-based

SMILES: CO[C@H]1/C=C/O[C@@]2(C)Oc3c(C)c(O)c4c(O)c(c(/C=N/N5CCN(C)CC5)c(O)c4c3C2=O)NC(=O)/C(C)=C\C=C\[C@H](C)[C@H](O)[C@@H](C)[C@@H](O)[C@@H](C)[C@H](OC(C)=O)[C@@H]1C [Rifampicin]
- isolates resistant (Kirby-Bauer disc diffusion) ([1]; CA-MRSA (n = 10)): 0.00%
- isolates resistant (Kirby-Bauer disc diffusion) ([1]; HA-MRSA (n = 10)): 10.00%
- isolates resistant (Kirby-Bauer disc diffusion) ([1]; Methicillin-susceptible staphylococci (n = 10)): 0.00%
- Total isolates resistant (Kirby-Bauer disc diffusion) [1]: 3.33%
- Total isolates resistant (Kirby-Bauer disc diffusion) ([1]; listed as rifampicin): 3.33%
- disk diffusion zone diameter ([2]; A66.1): 32 mm
- disk diffusion zone diameter ([2]; D39): 28 mm
- disk diffusion zone diameter ([2]; EF3030): 32 mm
- disk diffusion zone diameter ([2]; L82016): 26 mm
- disk diffusion zone diameter ([2]; P9): 27 mm
- disk diffusion zone diameter ([2]; P21): 32 mm
- disk diffusion zone diameter ([2]; TIGR4): 30 mm
- disk diffusion zone diameter ([2]; WCH16): 30 mm
- disk diffusion zone diameter ([2]; WCH43): 27 mm
- disk diffusion zone diameter ([2]; WCH46): 29 mm
- disk diffusion zone diameter ([2]; WCH57): 38 mm
- disk diffusion zone diameter ([2]; WCH77): 33 mm
- disk diffusion zone diameter ([2]; WCH86): 31 mm
- disk diffusion zone diameter ([2]; WCH89): 32 mm
- disk diffusion zone diameter ([2]; WCH92): 22 mm
- disk diffusion zone diameter ([2]; WCH137): 30 mm
- disk diffusion zone diameter ([2]; WCH158): 34 mm
- disk diffusion zone diameter ([2]; WCH184): 32 mm
- disk diffusion zone diameter ([2]; WCH211): 32 mm
- disk diffusion zone diameter ([2]; WU2): 31 mm

SMILES: CC1(C)S[C@@H]2[C@H](NC(=O)[C@H](N)c3ccc(O)cc3)C(=O)N2[C@H]1C(=O)O [amoxicillin]
- MRSP isolates susceptible ([3]; 13 MRSP isolates): 23%

SMILES: CO[C@@]1(NC(=O)Cc2cccs2)C(=O)N2C(C(=O)O)=C(COC(N)=O)CS[C@@H]21 [cefoxitin]
- MRSP isolates susceptible ([3]; 13 MRSP, cefoxitin resistance break point set at ≤30 mm): 7.7%
- MRSP isolates susceptible ([3]; 13 MRSP, cefoxitin resistance breakpoint set at ≤24 mm): 23% and 38%
- ZD ([3]; isolate S1P1): 0 mm
- ZD, Adl ([3]; isolate S1P1): 0 mm
- ZD ([3]; isolate S2P2): 21 mm
- ZD, Adl ([3]; isolate S2P2): 21 mm
- ZD ([3]; isolate S3P3): 21 mm
- ZD, Adl ([3]; isolate S3P3): 24 mm
- ZD ([3]; isolate S4P4): 29 mm
- ZD, Adl ([3]; isolate S4P4): 20 mm
- ZD ([3]; isolate S5P5): 26 mm
- ZD, Adl ([3]; isolate S5P5): 30 mm
- ZD ([3]; isolate S6P6): 22 mm
- ZD, Adl ([3]; isolate S6P6): 26 mm
- ZD ([3]; isolate S7P7): 21 mm
- ZD, Adl ([3]; isolate S7P7): 19 mm
- ZD ([3]; isolate S8P8): 21 mm
- ZD, Adl ([3]; isolate S8P8): 22 mm
- ZD ([3]; isolate S9P9): 23 mm
- ZD, Adl ([3]; isolate S9P9): 26 mm
- ZD ([3]; isolate S10P10): 21 mm
- ZD, Adl ([3]; isolate S10P10): 25 mm
- ZD ([3]; isolate S11P11): 22 mm
- ZD, Adl ([3]; isolate S11P11): 21 mm
- ZD ([3]; isolate S12P12): 24 mm
- ZD, Adl ([3]; isolate S12P12): 24 mm
- ZD ([3]; isolate S13P13): 36 mm
- ZD, Adl ([3]; isolate S13P13): 40 mm
- ZD ([3]; isolate S14P14): 34 mm
- ZD, Adl ([3]; isolate S14P14): 32 mm
- ZD ([3]; isolate S15P15): 33 mm
- ZD, Adl ([3]; isolate S15P15): 34 mm
- ZD ([3]; isolate S16P16): 38 mm
- ZD, Adl ([3]; isolate S16P16): 42 mm
- ZD ([3]; isolate S17P17): 36 mm
- ZD, Adl ([3]; isolate S17P17): 38 mm
- ZD ([3]; isolate S18P18): 25 mm
- ZD, Adl ([3]; isolate S18P18): 40 mm
- ZD ([3]; isolate S19P19): 36 mm
- ZD, Adl ([3]; isolate S19P19): 38 mm
- ZD ([3]; isolate S20P20): 38 mm
- ZD, Adl ([3]; isolate S20P20): 36 mm
- ZD ([3]; isolate S21P21): 36 mm
- ZD, Adl ([3]; isolate S21P21): 40 mm
- ZD ([3]; isolate S22P22): 34 mm
- ZD, Adl ([3]; isolate S22P22): 35 mm
- ZD ([3]; isolate S23P23): 29 mm
- ZD, Adl ([3]; isolate S23P23): 26 mm

SMILES: CC(=O)OCC1=C(C(=O)O)N2C(=O)[C@@H](NC(=O)Cc3cccs3)[C@H]2SC1 [cephalothin]
- MRSP isolates susceptible ([3]; 13 MRSP isolates): 62%

SMILES: COc1c(N2C[C@@H]3CCCN[C@@H]3C2)c(F)cc2c(=O)c(C(=O)O)cn(C3CC3)c12 [moxifloxacin]
- MRSP isolates susceptible ([3]; 13 MRSP isolates): 92%
